For assay [1], the system named is nitric oxide synthase (NOS). The assay is described as follows: cells. The class given is cell-based, mouse.
Assay [2] has as its system dopamine release from the rat striatum. The assay is described as follows: In vivo dopamine release from the striatum (microdialysis). To be noted: for effect on dopamine release: rat, in vivo. The protocol: The release of dopamine from the rat striatum was measured by the in vivo microdialysis method. A microdialysis probe fitted with a microinjection cannula was inserted into the striatum of an 8∼10·week·old male SD rat and the striatum was perfused with Ringer's solution at a rate of 2 µl/min.
Beginning 2 hours after the start of perfusion, the perfusate was recovered at a 20-minute interval and the dopamine in each perfusate was measured with a high-performance liquid chromatography-electrochemical detector. The drug was perfused into the striatum through the microdialysis probe or microinjected into the striatum via the microinjection cannula. The effect of the drug on the basal dopamine release was evaluated by comparing the values before and after stimulation and a statistical analysis was made by Dunnett's test. Then, to evaluate the effect of Compound 1A on KCl·stimulated dopamine release, the amount of dopamine released in the presence of Compound 1A (10 µM) (ipsilateral striatum) was compared with the amount of KCl-stimulated dopamine release in the absence of Compound 1A (contralateral striatum) and the difference was statistically analyzed by paired t-test.
Therefore, with a microdialysis probe inserted bilaterally, one of the striatum was perfused with Ringer's solution (control side) and the other striatum with Compound 1A (10 µM). K^+ stimulation, 25∼80 mM, was consecutively given at a 20-minute interval.

The next assay concerns L-type Ca^2+ channel. The class given is cell-based, mouse. To be noted: 3∼30 µM; Dunnett's test; Fig. 1.
For assay [3], the system named is mouse cerebral cortex-derived primary cultured neurons. As to the kind of experiment: Elevation of intracellular calcium ion concentration under high-potassium stimulation (fura-2/AM 2-wavelength fluorescence). The format is cell-based. To be noted: 1 - 30 µM; added 10 minutes before the second stimulation; Fig. 2; Dunnett's test, p<0.01. The protocol: In the dish (the bottom opening fitted with cover glass) used for the measurement of calcium ion concentration, neurons on day 5 of culture were allowed to take up the fluorescent calcium probe fura-2/AM before determination. Thus, cultured neurons were incubated in 10 mM HEPES-NaOH buffer (pH 7.05) containing 10 µM fura-2/AM, 5.4 mM KC1, 130 mM NaCl, 2.5 mM CaCl2 and 5.5 mM D-glucose at 37°C for 30 minutes to let fura-2/AM taken up in the cells. Thereafter, incubation was further continued for 30 minutes, whereby the fura-2/AM taken up in the cells was converted to fura-2 by endogenous esterase activity. […]
The calcium ion concentration was determined by the method of Grynkiewicz et al. (1985). Thus, by fluorescent microscope-image processing, the calcium ion concentration was determined from the fluorescence intensities of fura - 2/Ca^2+ at the exciting wavelengths of 340 nm and 380 nm. Using Argus-50/CA System (Hamamatsu Photonics), a calibration curve constructed beforehand was transformed to find the intracellular calcium ion concentration from the fluorescence intensity ratio.
The high-potassium stimulus was given twice, 15 minutes apart and for 15 seconds each, and the ratio of increase in free calcium ion concentration in response to the stimulations was calculated. […]

The target of a further assay is P/Q-type Ca^2+ channel (Mus musculus, UniProt P97445). The assay is described as follows: KCl-induced NOS activation in the presence of 1 µM nifedipine (response mediated by the P/Q-type channel). The class given is cell-based.
Sequence of P/Q-type Ca^2+ channel (P97445 whole entry): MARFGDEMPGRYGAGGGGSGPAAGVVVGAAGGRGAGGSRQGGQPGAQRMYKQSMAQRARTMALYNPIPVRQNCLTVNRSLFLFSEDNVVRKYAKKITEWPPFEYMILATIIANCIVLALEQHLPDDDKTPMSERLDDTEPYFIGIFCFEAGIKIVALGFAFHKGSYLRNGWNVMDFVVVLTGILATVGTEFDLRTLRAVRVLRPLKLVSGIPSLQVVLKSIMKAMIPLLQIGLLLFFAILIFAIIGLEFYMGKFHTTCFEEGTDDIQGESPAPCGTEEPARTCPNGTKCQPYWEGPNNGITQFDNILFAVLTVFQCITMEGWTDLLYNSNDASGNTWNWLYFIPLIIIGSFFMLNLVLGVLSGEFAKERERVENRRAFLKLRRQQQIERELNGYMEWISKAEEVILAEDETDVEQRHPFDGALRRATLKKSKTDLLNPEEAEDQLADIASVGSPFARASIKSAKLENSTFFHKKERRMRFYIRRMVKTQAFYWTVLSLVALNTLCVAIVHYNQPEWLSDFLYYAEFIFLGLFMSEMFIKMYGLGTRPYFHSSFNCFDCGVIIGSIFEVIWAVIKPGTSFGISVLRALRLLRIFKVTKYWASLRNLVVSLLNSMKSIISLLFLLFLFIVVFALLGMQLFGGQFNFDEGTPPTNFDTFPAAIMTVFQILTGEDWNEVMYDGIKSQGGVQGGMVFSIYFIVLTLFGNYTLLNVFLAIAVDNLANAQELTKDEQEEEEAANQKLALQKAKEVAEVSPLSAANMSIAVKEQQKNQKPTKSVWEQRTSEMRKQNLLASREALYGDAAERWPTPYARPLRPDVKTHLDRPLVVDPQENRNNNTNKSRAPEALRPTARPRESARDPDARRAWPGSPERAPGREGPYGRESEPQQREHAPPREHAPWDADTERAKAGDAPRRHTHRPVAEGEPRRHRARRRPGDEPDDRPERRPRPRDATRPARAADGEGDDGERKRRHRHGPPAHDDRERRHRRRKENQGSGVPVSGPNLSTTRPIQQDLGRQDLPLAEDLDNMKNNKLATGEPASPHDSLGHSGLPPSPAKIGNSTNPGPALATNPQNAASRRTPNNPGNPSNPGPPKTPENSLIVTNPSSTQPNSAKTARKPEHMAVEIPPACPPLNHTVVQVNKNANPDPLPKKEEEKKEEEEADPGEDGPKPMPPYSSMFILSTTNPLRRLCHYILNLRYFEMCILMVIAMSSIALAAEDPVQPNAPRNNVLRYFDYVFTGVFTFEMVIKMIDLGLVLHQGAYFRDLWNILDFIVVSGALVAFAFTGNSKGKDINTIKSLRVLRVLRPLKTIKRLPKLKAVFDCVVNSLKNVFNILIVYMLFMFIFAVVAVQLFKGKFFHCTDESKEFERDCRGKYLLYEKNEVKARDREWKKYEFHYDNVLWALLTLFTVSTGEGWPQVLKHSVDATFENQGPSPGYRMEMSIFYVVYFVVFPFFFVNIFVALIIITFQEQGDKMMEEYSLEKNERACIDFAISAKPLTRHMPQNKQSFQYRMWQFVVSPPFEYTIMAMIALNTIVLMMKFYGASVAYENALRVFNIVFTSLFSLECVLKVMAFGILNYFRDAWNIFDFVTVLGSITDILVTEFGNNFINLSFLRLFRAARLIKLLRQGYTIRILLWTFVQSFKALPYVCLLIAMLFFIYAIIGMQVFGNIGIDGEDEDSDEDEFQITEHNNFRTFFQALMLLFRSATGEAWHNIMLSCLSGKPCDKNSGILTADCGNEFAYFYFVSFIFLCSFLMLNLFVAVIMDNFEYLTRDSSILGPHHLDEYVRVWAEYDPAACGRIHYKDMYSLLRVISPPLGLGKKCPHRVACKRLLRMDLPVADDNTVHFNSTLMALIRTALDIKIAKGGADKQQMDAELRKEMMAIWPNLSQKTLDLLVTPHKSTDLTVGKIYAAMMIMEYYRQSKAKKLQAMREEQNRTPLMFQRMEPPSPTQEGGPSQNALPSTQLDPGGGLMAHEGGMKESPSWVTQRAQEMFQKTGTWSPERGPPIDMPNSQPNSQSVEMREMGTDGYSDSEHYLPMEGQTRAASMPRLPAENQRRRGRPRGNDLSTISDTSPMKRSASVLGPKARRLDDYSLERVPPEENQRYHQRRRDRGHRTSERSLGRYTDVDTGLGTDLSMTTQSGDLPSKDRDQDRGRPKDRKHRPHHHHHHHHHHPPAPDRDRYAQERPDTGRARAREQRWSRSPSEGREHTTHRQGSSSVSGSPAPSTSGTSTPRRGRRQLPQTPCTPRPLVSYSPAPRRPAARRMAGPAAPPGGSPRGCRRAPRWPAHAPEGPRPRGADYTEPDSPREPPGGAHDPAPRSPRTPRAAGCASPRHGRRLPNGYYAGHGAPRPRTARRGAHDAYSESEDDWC

In the case of `COC(=O)C1=C(C)NC(C)=C(C(=O)OC)C1c1ccccc1[N+](=O)[O-]` [nifedipine], the inhibition (commonly the change of the read-out against control, counted positive when it falls) at 1 µM in assay [1] (Mus musculus, Neuron, read-out: inhibition of NOS activated on high-potassium stimulation of neurons) was around 56%.

Turning to ω-conotoxin GVIA [reference compound], the “effect on the NOS activation by KCl stimulation” value in assay [1] (5 µM) was “substantially no effect”. For the same compound, the “effect on dopamine release” value in assay [2] is reported as “significant decrease (p<0.01)”.

For ω-agatoxin IVA [reference compound], the “inhibition of NOS activated on high-potassium stimulation of neurons” value in assay [1] (0.1 µM) was “about 53%”. Moreover, the “effect on dopamine release” value in assay [2] is reported as “significant decrease (p<0.01)”.

As for `Cc1nc(OCCCCCN2CCCCC2)cc(-c2ccc(F)cc2)n1` [Compound 1A, 4-(4-fluorophenyl)-2-methyl-6-(5-piperidinopentyloxy)pyrimidine], the “inhibition of the NOS activation in the presence of 0.1 µM ω-agatoxin IVA (the response mediated by the L-type Ca^2+ channel)” value in the assay on L-type Ca^2+ channel was “significant (P<0.01) and concentration-dependent inhibitions”. In addition, the “inhibition of the high-potassium-stimulated increase in intracellular calcium ion concentration” value in assay [3] was “inhibit the high-potassium-stimulated increase in intracellular calcium ion concentration in a concentration-dependent manner”. Besides, the “inhibition of dopamine release at 80 mM KCl” value in assay [2] (10 µM perfused into the striatum, 80 mM KCl, Fig. 3, p<0.05, paired t-test) is reported as “inhibited dopamine release significantly”. The “inhibitory effect on dopamine release under K^+ stimulation” value in assay [2] (10 µM perfused into the striatum, K^+ stimulation 25∼80 mM at a 20-minute interval, versus contralateral control side) was “marked inhibitory effects on dopamine release with an increasing potassium concentration”. In addition, the “inhibition of the response mediated by the P/Q-type Ca^2+ channel (NOS activation in the presence of 1 µM nifedipine)” value on P/Q-type Ca^2+ channel (10 µM) was “completely inhibited”. Further, the “inhibition of the NOS activation in the presence of 1 µM nifedipine (the response mediated by the P/Q-type Ca^2+ channel)” value at P/Q-type Ca^2+ channel (3∼30 µM, Dunnett's test, Fig. 1) is “significant (P<0.01) and concentration-dependent inhibitions”.

Source of the values: EP1108430A1, “CALCIUM CHANNEL ANTAGONISTS” (Nippon Shinyaku Co., Ltd., priority 1998, dated 2000).
